Experimental data published in patent publication US7728038B2, “Methods for chelation therapy” (priority 2004, dated 2010).
Marks after values point to notes of the source that are not given here.

Legend:
[1] = target: T1, horse spleen ferritin (Equus caballus, UniProt P02791+Q8MIP0); experiment: Removal of iron from ferritin by incubation with chelators; assay type: biochemical; details: Tris buffer 25 mM, pH 7.5, 37° C., chelator 0.47 mM, DFO 0.19 mM, up to 72 h
T1 construct: incubation of horse spleen ferritin with chelators 1a and 1b; from tissue; host or cells: horse spleen
Procedure: These chelators reacted with iron (III) forming purple complexes (UV: λmax=456 nm (ε4.6×10^3) for 1a; λmax=459 nm (λ4.45×10^3) for 1b) which have the chelator iron stoichiometry of 3:1. […] The chelators can also react with Al and Zn forming white powder complexes, and with Cu forming a green colored complex. These complexes were very soluble in water. […] The removal of iron from ferritin was determined by incubation of horse spleen ferritin with chelators 1a and 1b in Tris buffer (25 mM, pH 7.5, 37° C.) at a concentration of 0.47 mM, using DFO (0.19 mM) as a reference chelator similar to that described by Kontoghiorghes. The concentrations of the iron complex were measured spectrophotometrically from λmax values. The kinetics of iron release were investigated for a of period up to 72 h.

[2] = test system: ovariectomized (Ovx) rat; experiment: Micro-CT morphometry of lumbar vertebra cancellous bone in chelator-treated Ovx rats; assay type: in vivo
Procedure: (§1) Animal and treatment: Three-month-old female Sprague-Dawley rats (Charles River Laboratory) were obtained and housed with a 12 h light-dark cycle at constant room temperature (24° C.) and humidity. The rats were fed standard rat chow (#8640 Harland Teklad, Madison, Wis.) and water ad libitum. When aged 6 month, the rats were divided into four groups. One group was sacrificed as baseline controls at the beginning of the experiment. The remaining groups were sham operated (one group) or bilaterally ovariectomized (two groups) via a dorsal approach. Chelation treatment started from the second day after surgery and was given three times a week for 9 weeks. The chelator (1-N-Docosyltriethylenetetraminepentaacetic acid, GL22) was dissolved in saline (pH 7.5) and was administrated by oral gavage (100 μmole/kg), while control groups including the sham and Ovx operated animals received vehicle only in the same manner.
(§2) Tissue preparation and analyses: Humeral bone was fixed in 70% ethanol for measurement of tissue iron by EPR. Lumbar vertebrae were first fixed in 10% phosphate buffered formalin for 24 hours, then dehydrated in ascending concentrations of ethanol and embedded in methyl methacrylate. The blocks were trimmed for peripheral computed tomography (pQCT), micro-computed tomography (μ-CT) and later prepared for histomorphometric studies.
μ-CT measurement: Lumbar vertebra were scanned in all three dimensions with a high-resolution μ-CT (10 μm) (Scanco μCT-40, Scanco Medical, Bassersdorf, Switzerland). The complete third vertebral bodies were scanned with 600 slices, each containing 2048×2048 pixels. The trabecular and cortical part of the bodies were separated with semi-automatically drawn contours. The resulting grey-sclae images were segmented using a low-pass filter to remove noice and a fixed threshold to extract the mineralized bone phase. From the binary images, structural indices were assessed with three-dimensional techniques without model-assumptions of the appearance of trabecular bone and were calculated by measuring three-dimensional distances directly in the travecular network and taking the mean over all voxels. The region of interest was travecular bone in the lumbar vertebral body, excluding the prmary songiosa area, 0.5 mm from the growth plate.

[3] = test system: iron overload rats; experiment: Iron excretion in feces of iron overload rats treated by GL22 (GFAA); assay type: in vivo, rat; details: 30 μmol GL22 in low iron diet each day for 14 days
Procedure: 12 Male Sprague-Dawley rats from Simonsen Laboratories (Gilroy, Calif.) at about 80 days of age were given an intravenous injection of 241-Am-citrate in a total volume of 0.2 mL. For chelator treatment, the GL22 was dissolved in saline and the pH was adjusted to 7.5 with NaOH. Fourteen days after administration of 241-Am-citrate, a chelator food ration was started at 50 μmol/rat/day for 90 days orally, while the same food ration without chelator was given to controls. 50 μmol of chelator was added to the daily food ration (25 g). The total body retention of 241-Am was measured using a whole body-counter and after necropsy the skeletal tissues were counted for 241-Am content. The experimental protocol was described in an earlier publication. […] The same results have also been found for 239-Pu. Moreover, the excretion of iron from iron overloaded male rats that were treated by chelator was tested. […] Then, a low iron diet (Teklab diet #80396) was given to the rats for 2 weeks as the baseline iron excretion reached plateau levels, which was determined by GFAA measurement of iron in feces. […] The ashed feces were dissolved in 4 mL of 3 N HCl and quantitatively transferred to a volumetric flask. […] The concentration of iron was determined by GFAA spectrophotometry (Perkin Elmer). […]

[4] = test system: heavy metal overload animals; details: in vivo; cited from earlier work
[5] = 241-Am retention in whole body and skeletal tissue of rats after GL22 treatment; assay type: in vivo; details: GL22 50 μmol/rat/day in food for 90 days
Procedure: 12 Male Sprague-Dawley rats from Simonsen Laboratories (Gilroy, Calif.) at about 80 days of age were given an intravenous injection of 241-Am-citrate in a total volume of 0.2 mL. For chelator treatment, the GL22 was dissolved in saline and the pH was adjusted to 7.5 with NaOH. Fourteen days after administration of 241-Am-citrate, a chelator food ration was started at 50 μmol/rat/day for 90 days orally, while the same food ration without chelator was given to controls. 50 μmol of chelator was added to the daily food ration (25 g). The total body retention of 241-Am was measured using a whole body-counter and after necropsy the skeletal tissues were counted for 241-Am content. The experimental protocol was described in an earlier publication. […] The same results have also been found for 239-Pu. Moreover, the excretion of iron from iron overloaded male rats that were treated by chelator was tested. The same rats as above at the age of 180 days were given 10 mg of iron as iron-dextran (Sigma, St. Louis, Mo.) subcutaneously every 3 days for 6 weeks to induce iron overloading. Then, a low iron diet (Teklab diet #80396) was given to the rats for 2 weeks as the baseline iron excretion reached plateau levels, which was determined by GFAA measurement of iron in feces. The chelator treated rats were given 20 g of low iron diet with 30 μmol of GL22 and control rats were given just 20 g of low iron diet each day for 14 days. Feces were collected every day for determination of iron excretion. The samples of feces were placed in glazed porcelain crucibles, dried at 100° C. overnight and ashed in a muffle furnace at 550° C. for 18 h. The ashed feces were dissolved in 4 mL of 3 N HCl and quantitatively transferred to a volumetric flask. The crucibles were then rinsed twice with 5 ml of 0.36 N HCl. The concentration of iron was determined by GFAA spectrophotometry (Perkin Elmer). After 14 days of chelation treatment by oral administration there were significant increases in the amounts of iron found in the feces when compared with controls (Table 7).

[6] = test system: ovariectomized (Ovx) rat; experiment: Whole body BMD by dual x-ray absorptiometry, OVX rats treated with GL22; assay type: in vivo
Procedure: (§3) In another experiment, four groups of 3 or 4 rats (Sprague-Dawley, Charley River) each were used. The baseline group consisted of 3 normal rats, which were sacrificed at six months of age. The humeral bones were collected for EPR free iron and LLOFR measurements and the whole body bone mineral density (BMD) was assessed by Dual x-ray absorptiometry (Hologic QDR1000 Plus) before necropsy. The other three groups were sham ovariectomized (one group) or ovariectomized (two groups) at the same age. The operation (a dorsal approach of bilateral ovariectomy) was under aseptic conditions with Ketamine-Xylazine anesthesia. One group of OVX animals was treated by chelation therapy with 30 μmol/kg body weight of GL22 in saline solution (pH 7.5). The GL22 was orally administered by intubation with a blunt-ended stainless steel needle three times a week. The other two groups received the saline solution without chelator by the same manner. All groups were sacrificed at 60 days post-surgery to collect humeral bones for EPR free iron and LLOFR measurements. Before the termination, whole body BMD was measured.

[7] = test system: ovariectomized (Ovx) rat; experiment: Free iron contents in humeral cortical bone of Ovx rats by EPR after oral chelation treatment; assay type: in vivo; details: chelator 100 μmole/kg oral gavage three times a week for 9 weeks, FIG. 1
Procedure: as §1, with “manner. […]” for “manner.”
Iron measurement: Total iron contents of femoral cortical bones of aged women were assessed using ICP-OES performed by Galbraith Laboratories, Inc. (Knoxville, Tenn.). […] Each sample of about 100 mg was mixed with acid solution, microwave digested and measured. […]

[8] = test system: ovariectomized (Ovx) rat; experiment: EPR free iron (BC) and LLOFR (NC) of humeral bone, OVX rats treated with GL22; assay type: in vivo; details: GL22 30 μmol/kg orally three times a week, 60 days post-surgery
Procedure: as §3

[9] = test system: ovariectomized (Ovx) rat; experiment: pQCT densitometry of lumbar vertebra BMD in chelator-treated Ovx rats; assay type: in vivo
Procedure: as §1, §2
pQCT densitometry: The L3 vertebra bodies were examined by pQCT densitometry (Norland Stratec XCT 960A, Birkenfeld, Germany) to determine bone mineral density (BMD) for the part from the middle point to the caudal end, excluding the primary spongiosa. A scout scan of the vertebra was performed, and on the scout view, a reference line was manually placed such that the cross-sectional slice passed through at a distance of 1, 2, 3 and 4 mm from caudal end of lumbar vertebra body. The voxel size was 196 μm. Contour mode 2, Peel mode 20, Cortical mode 2 and threshold 570 for cortical bone was chosen for the analysis. The mean BMD for all of the measured slices was then calculated.

[10] = test system: ovariectomized (Ovx) rat; experiment: EPR free iron (BC) and LLOFR (NC) of humeral bone, OVX rats treated with estradiol; assay type: in vivo; details: 17b-estradiol 10 μg/kg IP three times a week, 60 days post-surgery
Procedure: EPR-osseous tissue sample preparation and measurement: Samples of human femoral cortical bone preserved in 70% alcohol were initially crushed into large pieces (<1 mm) using a mortar and pestle. The granules were defatted with 10 changes of acetone and dried at 60° C. The samples then were further crushed and sieved to obtain a 250-600 micrometer fraction. The EPR measurement of approximately 100 mg of sample were made at 24° C. with values for g-factors of 2.00503±0.00019 (NC) and 2.00541±0.00085 (BC) and with widths of 0.916±0.0465 mT (NC) and 2.5 mT (BC) following a modification of known protocols.^74-75 A Bruker 300E spectrometer at 9.7 GHz was used for date collection.
Humeral bones from four groups of 3 or 4 rats (Sprague-Dawley, Charley River) each were evaluated. The baseline group consisting of 3 normal rats were sacrificed at six months of age using Ketamine-Xylazine anesthesia. The other three groups (4 rats each) were sham ovariectomized (SHAM) (one group) or ovariectomized (OVX) (two groups) at the same age. Bilateral ovariectomy was performed using a dorsal approach under aseptic conditions with Ketamine-Xylazine anesthesia.^76 One group of OVX animals was treated by estradiol IP injection with 10 μg/kg body weight of 17b-estradiol in benzyl alcohol/corn oil solution (5:95, vol/vol). The injections were three times a week. […]

[11] = n-octanol/Tri-HCl buffer system; cited from earlier work
[12] = chelator-treated Ovx rats, μ-CT
[13] = Ovx rats treated with chelator, lumbar vertebra, pQCT

T1 sequence (P02791 2-175 limits assumed): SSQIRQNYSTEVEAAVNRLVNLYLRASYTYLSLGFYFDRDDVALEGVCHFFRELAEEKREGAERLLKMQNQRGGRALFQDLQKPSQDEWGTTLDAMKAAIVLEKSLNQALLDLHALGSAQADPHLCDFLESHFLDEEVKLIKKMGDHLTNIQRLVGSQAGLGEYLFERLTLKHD
T1 sequence (Q8MIP0 whole entry): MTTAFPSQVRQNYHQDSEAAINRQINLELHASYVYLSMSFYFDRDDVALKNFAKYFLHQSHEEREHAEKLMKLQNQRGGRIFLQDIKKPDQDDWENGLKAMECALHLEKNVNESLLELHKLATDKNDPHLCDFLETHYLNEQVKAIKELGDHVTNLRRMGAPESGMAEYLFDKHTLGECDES

## Cc1c(O)c(=O)ccn1COCCO [1a]
[1]
  removing iron from ferritin, compared with DFO: more effective than DFO

## CCc1c(O)c(=O)ccn1COCCO [1b]
[1]
  removing iron from ferritin, compared with DFO: more effective than DFO

## CCCCCCCCCCCCCCCCCCCCCCN(CCN(CCN(CCN(CC(=O)O)CC(=O)O)CC(=O)O)CC(=O)O)CC(=O)O [GL22, 1-N-Docosyltriethylenetetraminepentaacetic acid]
[2]; Ovx rats treated with chelator
  BV/TV compared with sham control: 85.2%
  Tr. Sp. increase compared with sham control: 8%
[2]; [12]
  bone volume to tissue volume (BV/TV), higher than untreated Ovx rats: 9.1%
  trabecular separation (Tr. Sp.), less than OVX controls: 10.2%
[3]
  Excreted Fe from feces: 1084.62 ± 88.54
[4]
  toxicity in treated heavy metal overload animals: without any indications of toxicity
[5]
  241-Am retention, Femur: 4.06 ± 0.08%
  241-Am retention, Humerus: 3.97 ± 0.09%
  241-Am retention, Vertebral body: 4.05 ± 0.23%
[5]; started 14 days after 241-Am-citrate iv
  241-Am retention, Whole body: 50.8 ± 0.7%
[6]; OVX rats, GL22 30 μmol/kg orally three times a week, 60 days post-surgery
  whole body BMD: 0.188 ± 0.004^b g/cm2
[6]; judged from BMD of chelator-treated OVX rats versus SHAM rats (Table 5)
  removal of Ca from bone: not found to remove Ca from bone
[7]
  iron content in bone, percent of that of Ovx rats without chelation treatment: 59.8%
  iron content in bone, percent of that of sham controls: 73.0%
[8]
  BC (free iron) in bone: 202.7 ± 32.9^b a.u./mg
  NC (LLOFR) in bone: 1083 ± 127^b a.u./mg
[9]; FIG. 2A, ANOVA p<0.01, 6 rats per group
  Trabecula BMD of spine bone versus Ovx group: significantly higher
[9]; FIG. 2B, ANOVA p<0.05, 6 rats per group
  Total BMD of spine bone versus Ovx group: significantly higher
[9]; Ovx rats treated with chelator
  trabecular BMD compared with sham control: 91.8%
[9]; [13]
  trabecular BMD of the spine, higher than Ovx rats: 20%
  trabecular BMD of the spine, less than sham control: 8.2%

## C[C@]12CC[C@@H]3c4ccc(O)cc4CC[C@H]3[C@@H]1CC[C@@H]2O [Estrogen, 17b-estradiol]
[10]
  BC (free iron) of EPR signal of humeral bone: 214.3 ± 11.1^b a.u./mg
  NC (LLOFR) of EPR signal of humeral bone: 1357.5 ± 101.4^b a.u./mg

## Cc1c(O)c(=O)ccn1C [L1, 1,2-dimethyl-3-hydroxyl-4-pyridinone]
[11]
  distribution coefficient (DC): 0.24
